# Test results as given in patent US7902373B2 (Pfizer Inc, priority 2006, dated 2011).
# Target: human recombinant H-PGDS (Homo sapiens, UniProt O60760)
# Test: Fluorescence intensity h-PGDS TBA enzyme assay
# Assay type: biochemical
# Settings: Examples up to 622 (and 3a, 3b)
# Sequence of human recombinant H-PGDS (O60760 whole entry): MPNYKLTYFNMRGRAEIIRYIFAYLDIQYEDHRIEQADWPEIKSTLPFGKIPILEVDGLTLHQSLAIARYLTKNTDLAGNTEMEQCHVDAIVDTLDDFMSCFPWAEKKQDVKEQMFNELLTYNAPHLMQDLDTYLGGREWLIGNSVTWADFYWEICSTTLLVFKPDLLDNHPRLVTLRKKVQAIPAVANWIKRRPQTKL
row,IC50,SMILES
1,1.36 nM,"CCc1csc(CN2CCC(NC(=O)c3ccc(-c4cccc(F)c4)nc3)CC2)n1 [Example 411, N-{1-[(4-Ethyl-1,3-thiazol-2-yl)methyl]piperidin-4-yl}-6-(3-fluorophenyl)nicotinamide]"
2,4.12 nM,"Cc1sc(CN2CCC(NC(=O)c3ccc(-c4cccc(F)c4)nc3)CC2)nc1-c1ccccc1 [Example 412, 6-(3-Fluorophenyl)-N-{1-[(5-methyl-4-phenyl-13-thiazol-2-yl)methyl]piperidin-4-yl}nicotinamide]"
3,1.68 nM,"CC(C)(C)OC(=O)NC1CCC(CN2CCC(NC(=O)c3ccc(-c4cccc(F)c4)nc3)CC2)CC1 (centres unmarked) [Example 416, tert-Butyl (4-{[4-({[6-(3-fluorophenyl)pyridin-3-yl]carbonyl}amino)piperidin-1-yl]methyl}cyclohexyl)carbamate]"
4,1.03 nM,"CC(C)(O)c1ccc(CN2CCC(NC(=O)c3ccc(-c4cccc(F)c4)nc3)CC2)c(F)c1 [Example 419, N-[1-(2-Fluoro-4-(1-hydroxy-1-methylethyl)benzyl]piperidin-4-yl}-6-(3-fluorophenyl)nicotinamide]"
5,1.34 nM,"Cn1c(CN2CCC(NC(=O)c3ccc(-c4cccc(F)c4)nc3)CC2)nc2ncccc21 [Example 421, 6-(3-Fluorophenyl)-N-{1-[(1-methyl-1H-imidazo[4,5-b]pyridin-2-yl)methyl]piperidin-4-yl}nicotinamide]"
6,5.53 nM,"O=C(NC1CCN(Cc2coc(-c3ccccc3)n2)CC1)c1ccc(-c2cccc(F)c2)nc1 [Example 426, 6-(3-Fluorophenyl)-N-{1-[(2-phenyl-1,3-oxazol-4-yl)methyl]piperidin-4-yl}nicotinamide]"
7,0.656 nM,"CCCn1cc(CN2CCC(NC(=O)c3ccc(-c4cccc(F)c4)nc3)CC2)c(C)n1 [Example 427, 6-(3-Fluorophenyl)-N-{1-[(3-methyl-1-propyl-1H-pyrazol-4-yl)methyl]piperidin-4-yl}nicotinamide]"
8,0.926 nM,"CC(C)Oc1ccc(CN2CCC(NC(=O)c3ccc(-c4cccc(F)c4)nc3)CC2)cc1CO [Example 428, 6-(3-Fluorophenyl)-N-{1-[3-(hydroxymethyl)-4-isopropoxybenzyl]piperidin-4-yl}nicotinamide]"
9,1.12 nM,"CC(C)Cc1cc(CN2CCC(NC(=O)c3ccc(-c4cccc(F)c4)nc3)CC2)n[nH]1 [Example 429, 6-(3-Fluorophenyl)-N-{1-[(5-isobutyl-1H-pyrazol-3-yl)methyl]piperidin-4-yl}nicotinamide]"
10,0.822 nM,"CCn1ccnc1CN1CCC(NC(=O)c2ccc(-c3cccc(F)c3)nc2)CC1 [Example 431, N-{1-[(1-Ethyl-1H-imidazol-2-yl)methyl]piperidin-4-yl}-6-(3-fluorophenyl)nicotinamide]"
11,0.962 nM,"Cc1c(CN2CCC(NC(=O)c3ccc(-c4cccc(F)c4)nc3)CC2)nc2ccccn12 [Example 432, 6-(3-Fluorophenyl)-N-{1-[(3-methylimidazo[1,2-a]pyridin-2-yl)methyl]piperidin-4-yl}nicotinamide]"
12,0.401 nM,"CC(C)c1csc(CN2CCC(NC(=O)c3ccc(-c4cccc(F)c4)nc3)CC2)n1 [Example 433, 6-(3-Fluorophenyl)-N-{1-[(4-isopropyl-1,3-thiazol-2-yl)methyl]piperidin-4-yl}nicotinamide]"
13,1.96 nM,"COCCc1ncc(CN2CCC(NC(=O)c3ccc(-c4cccc(F)c4)nc3)CC2)cn1 [Example 440, 6-(3-Fluorophenyl)-N-(1-{[2-(2-methoxyethyl)pyrimidin-5-yl]methyl}piperidin-4-yl)nicotinamide]"
14,2.58 nM,"CCCc1ncc(CN2CCC(NC(=O)c3ccc(-c4cccc(F)c4)nc3)CC2)cn1 [Example 441, 6-(3-Fluorophenyl)-N-{1-[(2-propylpyrimidin-5-yl)methyl]piperidin-4-yl}nicotinamide]"
15,1.59 nM,"Cc1ncc(CN2CCC(NC(=O)c3ccc(-c4cccc(F)c4)nc3)CC2)cn1 [Example 443, 6-(3-Fluorophenyl)-N-{1-[(2-methylpyrimidin-5-yl)methyl]piperidin-4-yl}nicotinamide]"
16,0.891 nM,"Cc1ncc(CN2CCC(NC(=O)c3ccc(-c4cccc(F)c4)nc3)CC2)s1 [Example 446, 6-(3-Fluorophenyl)-N-{1-[(2-methyl-1,3-thiazol-5-yl)methyl]piperidin-4-yl}nicotinamide]"
17,2.45 nM,"O=C(NC1CCN(Cc2nc3cccc4c3n2CCC4)CC1)c1ccc(-c2cccc(F)c2)nc1 [Example 448, N-[1-(5,6-Dihydro-4H-imidazo[4,51-ij]quinolin-2-ylmethyl)piperidin-4-yl]-6-(3-fluorophenyl)nicotinamide]"

# More lines, now with the values behind:
row,SMILES,IC50
1,"N#Cc1cccc(-c2csc(CN3CCC(NC(=O)c4ccc(-c5cccc(F)c5)nc4)CC3)n2)c1 [Example 410, N-(1-{[4-(3-Cyanophenyl)-1,3-thiazol-2-yl]methyl}piperidin-4-yl)-6-(3-fluorophenyl)nicotinamide]",16.3 nM
2,"O=C(NC1CCN(Cc2nc3ccccn3c2Br)CC1)c1ccc(-c2cccc(F)c2)nc1 [Example 414, N-{1-[(3-Bromoimidazo[1,2-a]pyridin-2-yl)methyl]piperidin-4-yl}-6-(3-fluorophenyl)nicotinamide]",0.35 nM
3,"Cn1c(CN2CCC(NC(=O)c3ccc(-c4cccc(F)c4)nc3)CC2)nc2cccnc21 [Example 415, 6-(3-Fluorophenyl)-N-{1-[(3-methyl-3H-imidazo[4,5-b]pyridin-2-yl)methyl]piperidin-4-yl}nicotinamide]",1.96 nM
4,"CN(C)CCCOc1cccc(CN2CCC(NC(=O)c3ccc(-c4cccc(F)c4)nc3)CC2)c1 [Example 417, N-(1-{3-[3-(Dimethylamino)propoxy]benzyl}piperidin-4-yl)-6-(3-fluorophenyl)nicotinamide]",1.1 nM
5,"O=C(NC1CCN(Cc2cccc3c2OCCO3)CC1)c1ccc(-c2cccc(F)c2)nc1 [Example 418, N-[1-(2,3-Dihydro-1,4-benzodioxin-5-ylmethyl)piperidin-4-yl]-6-(3-fluorophenyl)nicotinamide]",0.427 nM
6,"COCCn1c(CN2CCC(NC(=O)c3ccc(-c4cccc(F)c4)nc3)CC2)nc2ccccc21 [Example 420, 6-(3-Fluorophenyl)-N-(1-{[1-(2-methoxyethyl)-1H-benzimidazol-2-yl]methyl}piperidin-4-yl)nicotinamide]",3.4 nM
7,"O=C(NC1CCN(Cc2nc3ccccc3n2C2CC2)CC1)c1ccc(-c2cccc(F)c2)nc1 [Example 422, N-{1-[(1-Cyclopropyl-1H-benzimidazol-2-yl)methyl]piperidin-4-yl}-6-(3-fluorophenyl)nicotinamide]",2.53 nM
8,O=C(NC1CCN(Cc2nc3ccccc3n2CCF)CC1)c1ccc(-c2cccc(F)c2)nc1 [Example 423],0.931 nM
9,O=C(NC1CCN(Cc2nc3ccccc3n2CF)CC1)c1ccc(-c2cccc(F)c2)nc1 [Example 424],1.3 nM
10,"COc1ccc(CN2CCC(NC(=O)c3ccc(-c4cccc(F)c4)nc3)CC2)cc1OCC(F)F [Example 425, N-{1-[3-(2,2-Difluoroethyoxy)-4-methoxybenzyl]piperidin-4-yl}-6-(3-fluorophenyl)nicotinamide]",2.81 nM
11,"O=C(NC1CCN(Cc2ccc3cccc(F)c3n2)CC1)c1ccc(-c2cccc(F)c2)nc1 [Example 430, 6-(3-Fluorophenyl)-N-{1-[(8-fluoroquinolin-2-yl)methyl]piperidin-4-yl}nicotinamide]",1.2 nM
12,"Cc1ccccc1-c1ncc(CN2CCC(NC(=O)c3ccc(-c4cccc(F)c4)nc3)CC2)cn1 [Example 434, 6-(3-Fluorophenyl)-N-(1-{[2-(2-methylphenyl)pyrimidin-5-yl]methyl}piperidin-4-yl)nicotinamide]",1.51 nM
13,"Cc1cccc(-n2ccnc2CN2CCC(NC(=O)c3ccc(-c4cccc(F)c4)nc3)CC2)c1 [Example 435, 6-(3-Fluorophenyl)-N-(1-{[1-(3-methylphenyl)-1H-imidazol-2-yl]methyl}piperidin-4-yl)nicotinamide]",0.908 nM
14,"O=C(NC1CCN(Cc2ccccc2Cn2cccn2)CC1)c1ccc(-c2cccc(F)c2)nc1 [Example 436, 6-(3-Fluorophenyl)-N-{1-[2-(1H-pyrazol-1-ylmethyl)benzyl]piperidin-4-yl}nicotinamide]",0.885 nM
15,"COc1ccccc1-c1ncc(CN2CCC(NC(=O)c3ccc(-c4cccc(F)c4)nc3)CC2)cn1 [Example 437, 6-(3-Fluorophenyl)-N-(1-{[2-(2-methoxyphenyl)pyrimidin-5-yl]methyl}piperidin-4-yl)nicotinamide]",3.52 nM
16,"Cc1ccc(-n2cccn2)c(CN2CCC(NC(=O)c3ccc(-c4cccc(F)c4)nc3)CC2)c1 [Example 438, 6-(3-Fluorophenyl)-N-{1-[5-methyl-2-(1H-pyrazol-1-yl)benzyl]piperidin-4-yl}nicotinamide]",0.417 nM
17,"O=C(NC1CCN(Cc2c[nH]nc2-c2cccc(F)c2)CC1)c1ccc(-c2cccc(F)c2)nc1 [Example 439, 6-(3-Fluorophenyl)-N-(1-{[3-(3-fluorophenyl)-1H-pyrazol-4-yl]methyl}piperidin-4-yl)nicotinamide]",0.762 nM
18,"CCc1ncc(CN2CCC(NC(=O)c3ccc(-c4cccc(F)c4)nc3)CC2)cn1 [Example 442, N-{1-[(2-Ethylpyrimidin-5-yl)methyl]piperidin-4-yl}-6-(3-fluorophenyl)nicotinamide]",2.78 nM
19,"Cc1nc(C)c(CN2CCC(NC(=O)c3ccc(-c4cccc(F)c4)nc3)CC2)nc1C [Example 444, 6-(3-Fluorophenyl)-N-{1-[(3,5,6-trimethylpyrazin-2-yl)methyl]piperidin-4-yl}nicotinamide]",0.135 nM
20,"Cc1nc2ccc(Cl)cn2c1CN1CCC(NC(=O)c2ccc(-c3cccc(F)c3)nc2)CC1 [Example 445, N-{1-[(6-Chloro-2-methylimidazo[1,2-a]pyridin-3-yl)methyl]piperidin-4-yl}-6-(3-fluorophenyl)nicotinamide]",4.24 nM
21,"COCn1c(CN2CCC(NC(=O)c3ccc(-c4cccc(F)c4)nc3)CC2)nc2ccccc21 [Example 447, 6-(3-Fluorophenyl)-N-(1-{[1-(methoxymethyl)-1H-benzimidazol-2-yl]methyl}piperidin-4-yl)nicotinamide]",1.1 nM
